Assays:
Test in all cases: biochemical
Parameters in all cases: DiscoverX KINOMEscan scanMAX competition binding panel, single concentration, percent of control; remaining binding: dose or concentration left out as unconfirmed
Settings in all cases: KINOMEscan binding, percent of control; read-out: Table S4_SCANMAX REPORT - related to Fig. 1 / Percent Control
CAMK1 = CAMK1 (Homo sapiens, UniProt Q14012)
Description: (§1) Certain PTH are potent inhibitors of TLK1 ([Ronald et al., 2013]), and by inference TLK2, as these proteins must homo- and hetero-dimerize for full activation ([Mortuza et al., 2018]), in addition to being highly similar in sequence and structure, and thus similarly targetable. […] Two noteworthy observations are that PTHs are structurally different from many known ATP competitive inhibitors, and that J54 was carefully designed based on considerations reported previously for the THD—the Kinomescan has confirmed that J54 is specific to TLKs. We should point out that although PTH were the first reported inhibitors of TLKs ([Ronald et al., 2013]), other inhibitors particularly of TLK2 have since been reported ([Kim et al., 2016]), some based on structure docking ([Mortuza et al., 2018]), although neither their potency and effects in vivo nor their potential off-target effects have not been reported as they were selected from libraries of kinase inhibitors. Supplementary file mmc2.xlsx: Table S4. SCANMAX Table, Related to Figure 1 Kinomescan of J54 inhibitory activity on human kinases.

CDKL3 = CDKL3 (Homo sapiens, UniProt Q8IVW4)
Description: as §1

EGFR(G719C) = EGFR(G719C) (Homo sapiens, UniProt P00533, G719C)
Description: as §1

EPHB6 = EPHB6 (Homo sapiens, UniProt O15197)
Description: as §1

FGFR4 = FGFR4 (Homo sapiens, UniProt P22455)
Description: as §1

INSR = INSR (Homo sapiens, UniProt P06213)
Description: as §1

[1] = biological target: T1, JAK2(JH1domain-catalytic) (Homo sapiens, UniProt O60674)
T1 construct: JH1domain-catalytic
Description: as §1

KIT(D816H) = KIT(D816H) (Homo sapiens, UniProt P10721, D816H)
Description: as §1

LRRK2 = LRRK2 (Homo sapiens, UniProt Q5S007)
Description: as §1

MEK5 = biological target: T2, MEK5 (Homo sapiens, UniProt Q13163)
T2 construct: gene MAP2K5
Description: as §1

PAK1 = PAK1 (Homo sapiens, UniProt Q13153)
Description: as §1

PFTAIRE2 = biological target: T3, PFTAIRE2 (Homo sapiens, UniProt Q96Q40)
T3 construct: gene CDK15
Description: as §1

RIOK2 = RIOK2 (Homo sapiens, UniProt Q9BVS4)
Description: as §1

SIK = biological target: T4, SIK (Homo sapiens, UniProt P57059)
T4 construct: gene SIK1
Description: as §1

SIK2 = SIK2 (Homo sapiens, UniProt Q9H0K1)
Description: as §1

TAOK2 = TAOK2 (Homo sapiens, UniProt Q9UL54)
Description: as §1

p38-beta = biological target: T5, p38-beta (Homo sapiens, UniProt Q15759)
T5 construct: gene MAPK11
Description: as §1

p38-delta = biological target: T6, p38-delta (Homo sapiens, UniProt O15264)
T6 construct: gene MAPK13
Description: as §1

Chain of CDKL3 (Q8IVW4 whole entry): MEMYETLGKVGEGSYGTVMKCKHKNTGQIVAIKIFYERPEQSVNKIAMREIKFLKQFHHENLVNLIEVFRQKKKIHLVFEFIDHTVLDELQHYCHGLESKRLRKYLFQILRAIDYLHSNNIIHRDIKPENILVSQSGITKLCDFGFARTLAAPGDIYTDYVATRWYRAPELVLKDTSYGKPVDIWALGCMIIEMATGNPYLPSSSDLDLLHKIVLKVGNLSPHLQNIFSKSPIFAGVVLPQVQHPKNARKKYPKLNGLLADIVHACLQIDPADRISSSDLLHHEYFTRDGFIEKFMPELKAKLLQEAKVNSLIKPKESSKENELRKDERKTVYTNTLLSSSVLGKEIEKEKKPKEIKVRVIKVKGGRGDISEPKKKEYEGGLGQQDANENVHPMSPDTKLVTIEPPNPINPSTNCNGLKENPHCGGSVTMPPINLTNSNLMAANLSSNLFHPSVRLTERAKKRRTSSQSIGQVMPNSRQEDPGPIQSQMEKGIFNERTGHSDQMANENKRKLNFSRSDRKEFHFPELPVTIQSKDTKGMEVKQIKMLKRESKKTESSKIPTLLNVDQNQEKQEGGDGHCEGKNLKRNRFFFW
T2 sequence (Q13163 whole entry): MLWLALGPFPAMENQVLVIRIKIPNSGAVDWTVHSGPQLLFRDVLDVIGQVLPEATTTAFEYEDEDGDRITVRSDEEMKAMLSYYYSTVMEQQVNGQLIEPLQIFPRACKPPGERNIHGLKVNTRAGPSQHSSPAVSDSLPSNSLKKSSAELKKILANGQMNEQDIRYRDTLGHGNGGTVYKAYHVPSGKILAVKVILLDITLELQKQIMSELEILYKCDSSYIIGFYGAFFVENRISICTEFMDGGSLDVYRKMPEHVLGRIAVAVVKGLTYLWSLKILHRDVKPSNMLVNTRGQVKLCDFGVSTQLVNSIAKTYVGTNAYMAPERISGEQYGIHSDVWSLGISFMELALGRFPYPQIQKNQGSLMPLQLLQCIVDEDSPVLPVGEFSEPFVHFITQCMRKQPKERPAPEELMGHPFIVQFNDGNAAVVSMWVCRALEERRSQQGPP
Chain of SIK2 (Q9H0K1 whole entry): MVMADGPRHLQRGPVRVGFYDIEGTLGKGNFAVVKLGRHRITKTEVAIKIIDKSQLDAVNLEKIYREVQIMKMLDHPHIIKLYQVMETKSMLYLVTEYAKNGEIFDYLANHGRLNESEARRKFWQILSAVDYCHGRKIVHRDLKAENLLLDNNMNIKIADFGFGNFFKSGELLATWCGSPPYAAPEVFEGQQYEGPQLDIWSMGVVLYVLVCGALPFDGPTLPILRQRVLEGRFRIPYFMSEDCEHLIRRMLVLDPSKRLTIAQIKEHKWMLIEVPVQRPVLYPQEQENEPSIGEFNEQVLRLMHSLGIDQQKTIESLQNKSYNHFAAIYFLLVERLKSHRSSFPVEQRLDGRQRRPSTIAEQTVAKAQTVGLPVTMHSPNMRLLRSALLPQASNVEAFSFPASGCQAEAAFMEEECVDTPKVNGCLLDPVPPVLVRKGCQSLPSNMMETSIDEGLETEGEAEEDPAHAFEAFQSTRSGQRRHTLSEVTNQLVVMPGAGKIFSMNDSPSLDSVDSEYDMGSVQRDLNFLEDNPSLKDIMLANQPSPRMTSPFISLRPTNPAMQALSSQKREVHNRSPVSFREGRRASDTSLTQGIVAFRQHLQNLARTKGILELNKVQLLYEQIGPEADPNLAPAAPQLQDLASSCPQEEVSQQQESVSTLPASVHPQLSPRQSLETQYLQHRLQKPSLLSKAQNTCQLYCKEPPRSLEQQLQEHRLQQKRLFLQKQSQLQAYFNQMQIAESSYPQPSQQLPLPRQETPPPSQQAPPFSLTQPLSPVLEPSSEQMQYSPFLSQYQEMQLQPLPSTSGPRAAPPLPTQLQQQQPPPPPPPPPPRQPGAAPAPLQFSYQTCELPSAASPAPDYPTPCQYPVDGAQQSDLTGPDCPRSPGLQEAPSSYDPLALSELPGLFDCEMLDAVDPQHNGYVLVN
Chain of RIOK2 (Q9BVS4 whole entry): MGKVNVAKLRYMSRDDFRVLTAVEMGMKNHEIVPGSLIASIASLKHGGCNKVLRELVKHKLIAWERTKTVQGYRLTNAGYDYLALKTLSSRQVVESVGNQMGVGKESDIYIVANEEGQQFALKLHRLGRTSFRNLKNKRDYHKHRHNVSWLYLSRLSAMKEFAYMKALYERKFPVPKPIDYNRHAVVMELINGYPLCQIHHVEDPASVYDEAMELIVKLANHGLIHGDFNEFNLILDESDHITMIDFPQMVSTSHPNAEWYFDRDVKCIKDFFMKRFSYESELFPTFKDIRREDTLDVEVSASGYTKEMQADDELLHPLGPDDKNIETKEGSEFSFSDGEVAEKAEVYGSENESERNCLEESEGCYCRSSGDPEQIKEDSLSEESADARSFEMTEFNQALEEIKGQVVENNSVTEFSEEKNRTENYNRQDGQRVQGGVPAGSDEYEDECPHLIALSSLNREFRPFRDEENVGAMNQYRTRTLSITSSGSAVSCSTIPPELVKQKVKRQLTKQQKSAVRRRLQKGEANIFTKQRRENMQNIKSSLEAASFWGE
Chain of TAOK2 (Q9UL54 whole entry): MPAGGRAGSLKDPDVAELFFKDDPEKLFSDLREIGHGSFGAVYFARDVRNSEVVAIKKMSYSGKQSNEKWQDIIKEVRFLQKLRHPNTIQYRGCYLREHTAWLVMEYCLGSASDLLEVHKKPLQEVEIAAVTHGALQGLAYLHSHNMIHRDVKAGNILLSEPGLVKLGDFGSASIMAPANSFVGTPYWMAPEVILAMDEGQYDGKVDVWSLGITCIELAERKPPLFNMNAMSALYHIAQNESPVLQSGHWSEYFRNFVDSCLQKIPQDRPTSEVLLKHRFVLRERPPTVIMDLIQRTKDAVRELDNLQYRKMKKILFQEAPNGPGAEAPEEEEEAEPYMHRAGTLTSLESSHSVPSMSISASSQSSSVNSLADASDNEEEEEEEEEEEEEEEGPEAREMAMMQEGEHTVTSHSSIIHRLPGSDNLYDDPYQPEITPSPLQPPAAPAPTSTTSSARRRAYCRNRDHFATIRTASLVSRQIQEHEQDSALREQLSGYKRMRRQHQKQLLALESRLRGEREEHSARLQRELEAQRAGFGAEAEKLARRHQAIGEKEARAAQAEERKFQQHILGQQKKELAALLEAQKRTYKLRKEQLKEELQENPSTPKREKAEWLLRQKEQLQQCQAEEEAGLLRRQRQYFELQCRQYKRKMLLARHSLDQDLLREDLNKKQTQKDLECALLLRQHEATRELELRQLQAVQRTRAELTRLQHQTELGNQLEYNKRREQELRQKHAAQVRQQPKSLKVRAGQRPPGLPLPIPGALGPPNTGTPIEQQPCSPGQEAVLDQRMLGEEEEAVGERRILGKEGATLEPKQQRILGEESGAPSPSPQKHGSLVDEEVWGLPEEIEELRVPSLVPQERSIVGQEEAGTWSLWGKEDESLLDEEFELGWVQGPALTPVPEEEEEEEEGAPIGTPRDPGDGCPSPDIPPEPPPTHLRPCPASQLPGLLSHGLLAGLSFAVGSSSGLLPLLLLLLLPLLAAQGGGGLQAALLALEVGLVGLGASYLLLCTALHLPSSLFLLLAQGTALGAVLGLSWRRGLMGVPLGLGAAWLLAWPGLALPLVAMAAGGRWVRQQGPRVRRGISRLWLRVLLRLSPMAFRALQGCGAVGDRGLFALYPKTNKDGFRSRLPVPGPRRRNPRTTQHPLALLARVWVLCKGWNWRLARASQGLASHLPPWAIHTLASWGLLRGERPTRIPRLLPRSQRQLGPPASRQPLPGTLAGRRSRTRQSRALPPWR
Chain of CAMK1 (Q14012 whole entry): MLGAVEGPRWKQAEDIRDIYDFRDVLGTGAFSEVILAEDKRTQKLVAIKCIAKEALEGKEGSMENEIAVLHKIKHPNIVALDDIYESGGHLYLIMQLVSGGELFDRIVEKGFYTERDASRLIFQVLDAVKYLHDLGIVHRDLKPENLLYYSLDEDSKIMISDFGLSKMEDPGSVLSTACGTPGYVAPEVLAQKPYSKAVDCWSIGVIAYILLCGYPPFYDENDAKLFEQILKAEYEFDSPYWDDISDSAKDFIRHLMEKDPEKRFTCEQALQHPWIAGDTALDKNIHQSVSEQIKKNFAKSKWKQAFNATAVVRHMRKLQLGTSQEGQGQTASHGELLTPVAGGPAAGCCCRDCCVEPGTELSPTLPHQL
T4 sequence (P57059 whole entry): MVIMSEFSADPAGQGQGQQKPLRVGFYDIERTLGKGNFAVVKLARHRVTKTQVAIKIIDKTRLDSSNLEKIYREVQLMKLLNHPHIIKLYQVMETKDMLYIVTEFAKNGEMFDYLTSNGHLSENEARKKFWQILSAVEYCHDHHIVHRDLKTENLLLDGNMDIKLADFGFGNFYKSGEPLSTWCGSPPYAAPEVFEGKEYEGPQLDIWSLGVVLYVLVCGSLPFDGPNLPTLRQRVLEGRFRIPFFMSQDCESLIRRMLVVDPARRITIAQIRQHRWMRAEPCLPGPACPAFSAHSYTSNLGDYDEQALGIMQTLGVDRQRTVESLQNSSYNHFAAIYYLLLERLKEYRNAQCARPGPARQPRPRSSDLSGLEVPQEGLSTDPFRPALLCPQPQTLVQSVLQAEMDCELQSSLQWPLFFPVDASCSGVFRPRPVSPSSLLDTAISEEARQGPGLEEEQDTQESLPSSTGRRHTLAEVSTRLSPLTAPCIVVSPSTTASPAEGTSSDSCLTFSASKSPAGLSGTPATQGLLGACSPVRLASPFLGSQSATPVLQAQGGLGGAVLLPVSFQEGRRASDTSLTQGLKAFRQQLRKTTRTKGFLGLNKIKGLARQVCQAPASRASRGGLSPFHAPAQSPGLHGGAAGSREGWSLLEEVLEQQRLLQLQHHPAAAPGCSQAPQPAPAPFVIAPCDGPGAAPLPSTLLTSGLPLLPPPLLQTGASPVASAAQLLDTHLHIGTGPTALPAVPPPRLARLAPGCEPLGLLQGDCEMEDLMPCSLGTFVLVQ

Compound: c1ccc2c(c1)Sc1ccccc1N2CCN1CCOCC1 [J54]
- remaining binding (CAMK1): 97%
- remaining binding (CDKL3): 100%
- remaining binding (EGFR(G719C)): 100%
- remaining binding (EPHB6): 74%
- remaining binding (FGFR4): 100%
- remaining binding (INSR): 68%
- remaining binding [1]: 95%
- remaining binding (KIT(D816H)): 62%
- remaining binding (LRRK2): 100%
- remaining binding (MEK5): 95%
- remaining binding (PAK1): 93%
- remaining binding (PFTAIRE2): 100%
- remaining binding (RIOK2): 100%
- remaining binding (SIK): 91%
- remaining binding (SIK2): 97%
- remaining binding (TAOK2): 100%
- remaining binding (p38-beta): 100%
- remaining binding (p38-delta): 100%

From PMC7486443, “Generation of Phenothiazine with Potent Anti-TLK1 Activity for Prostate Cancer Therapy” (iScience, 2020)
